Measured values taken from patent US9249129B2, “Morpholino substituted urea derivatives as mTOR inhibitors” (CELLZOME LIMITED, priority 2010, dated 2016).

Experiments:
Assay in all cases: kinobeads assay with mass spectrometry detection of kinases (kinase selectivity profile)
Format in all cases: binding
kinases (kinome) [1] = molecular target: T1, kinases (kinome) (Homo sapiens, UniProt O15197); settings: EphB6 (TK), IPI00005222
T1 construct: determined in kinobeads assays with mass spectrometry detection of kinases as described previously; endogenous in cells; host or cells: cell lysate
T1 sequence (O15197 32-1021): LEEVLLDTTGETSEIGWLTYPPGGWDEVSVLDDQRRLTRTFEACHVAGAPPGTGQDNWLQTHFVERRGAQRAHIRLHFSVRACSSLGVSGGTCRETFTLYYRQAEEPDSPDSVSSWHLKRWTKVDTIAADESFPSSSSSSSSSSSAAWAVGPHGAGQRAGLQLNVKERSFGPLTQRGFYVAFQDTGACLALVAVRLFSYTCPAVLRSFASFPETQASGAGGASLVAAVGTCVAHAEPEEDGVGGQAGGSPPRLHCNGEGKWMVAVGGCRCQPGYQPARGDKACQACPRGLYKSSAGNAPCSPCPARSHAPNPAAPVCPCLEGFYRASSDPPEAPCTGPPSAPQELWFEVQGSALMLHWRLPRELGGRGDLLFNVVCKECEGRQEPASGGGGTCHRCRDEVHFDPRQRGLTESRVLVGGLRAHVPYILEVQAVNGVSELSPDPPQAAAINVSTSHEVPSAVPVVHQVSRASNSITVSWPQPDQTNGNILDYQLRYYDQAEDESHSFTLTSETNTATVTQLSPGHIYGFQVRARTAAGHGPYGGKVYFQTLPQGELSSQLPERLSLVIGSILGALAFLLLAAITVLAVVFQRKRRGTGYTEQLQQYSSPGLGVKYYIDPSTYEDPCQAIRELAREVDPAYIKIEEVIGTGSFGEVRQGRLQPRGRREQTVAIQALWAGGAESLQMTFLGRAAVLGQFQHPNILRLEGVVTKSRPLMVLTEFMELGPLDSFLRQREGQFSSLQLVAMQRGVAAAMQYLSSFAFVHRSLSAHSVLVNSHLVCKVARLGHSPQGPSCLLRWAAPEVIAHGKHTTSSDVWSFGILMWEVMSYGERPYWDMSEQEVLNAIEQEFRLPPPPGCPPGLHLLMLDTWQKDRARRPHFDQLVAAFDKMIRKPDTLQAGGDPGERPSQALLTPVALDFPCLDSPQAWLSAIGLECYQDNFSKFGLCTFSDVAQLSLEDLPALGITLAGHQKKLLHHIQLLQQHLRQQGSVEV
Source text: (§1) The protein kinase complement of the human genome (the kinome) was described previously (Manning et al., 2002. Science 298(5600):1912-1934). Sequence accession numbers are defined by the International Protein Index (IPI) (Kersey et al., 2004. Proteomics 4(7):1985-1988).

kinases (kinome) [2] = molecular target: T2, kinases (kinome) (Homo sapiens, UniProt P49759); settings: CLK1 (CMGC), IPI00915761
T2 construct: determined in kinobeads assays with mass spectrometry detection of kinases as described previously; endogenous in cells; host or cells: cell lysate
T2 sequence (P49759 whole entry): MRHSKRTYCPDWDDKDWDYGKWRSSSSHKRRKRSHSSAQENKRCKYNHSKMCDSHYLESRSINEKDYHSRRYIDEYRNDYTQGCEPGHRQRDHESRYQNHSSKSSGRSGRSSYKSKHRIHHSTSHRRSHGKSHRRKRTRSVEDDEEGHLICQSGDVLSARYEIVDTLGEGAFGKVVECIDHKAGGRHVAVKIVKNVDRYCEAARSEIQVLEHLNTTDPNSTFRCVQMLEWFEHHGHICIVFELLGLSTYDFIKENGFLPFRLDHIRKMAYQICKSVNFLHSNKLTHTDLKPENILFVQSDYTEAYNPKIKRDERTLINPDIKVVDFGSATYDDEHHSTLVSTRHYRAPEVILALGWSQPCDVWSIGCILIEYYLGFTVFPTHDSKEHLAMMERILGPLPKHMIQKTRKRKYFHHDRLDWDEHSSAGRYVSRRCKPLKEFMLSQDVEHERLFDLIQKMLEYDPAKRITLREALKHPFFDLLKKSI
Source text: as §1

kinases (kinome) [3] = molecular target: T3, kinases (kinome) (Homo sapiens, UniProt P10721); settings: KIT (TK), IPI00022296
T3 construct: determined in kinobeads assays with mass spectrometry detection of kinases as described previously; endogenous in cells; host or cells: cell lysate
T3 sequence (P10721 26-976): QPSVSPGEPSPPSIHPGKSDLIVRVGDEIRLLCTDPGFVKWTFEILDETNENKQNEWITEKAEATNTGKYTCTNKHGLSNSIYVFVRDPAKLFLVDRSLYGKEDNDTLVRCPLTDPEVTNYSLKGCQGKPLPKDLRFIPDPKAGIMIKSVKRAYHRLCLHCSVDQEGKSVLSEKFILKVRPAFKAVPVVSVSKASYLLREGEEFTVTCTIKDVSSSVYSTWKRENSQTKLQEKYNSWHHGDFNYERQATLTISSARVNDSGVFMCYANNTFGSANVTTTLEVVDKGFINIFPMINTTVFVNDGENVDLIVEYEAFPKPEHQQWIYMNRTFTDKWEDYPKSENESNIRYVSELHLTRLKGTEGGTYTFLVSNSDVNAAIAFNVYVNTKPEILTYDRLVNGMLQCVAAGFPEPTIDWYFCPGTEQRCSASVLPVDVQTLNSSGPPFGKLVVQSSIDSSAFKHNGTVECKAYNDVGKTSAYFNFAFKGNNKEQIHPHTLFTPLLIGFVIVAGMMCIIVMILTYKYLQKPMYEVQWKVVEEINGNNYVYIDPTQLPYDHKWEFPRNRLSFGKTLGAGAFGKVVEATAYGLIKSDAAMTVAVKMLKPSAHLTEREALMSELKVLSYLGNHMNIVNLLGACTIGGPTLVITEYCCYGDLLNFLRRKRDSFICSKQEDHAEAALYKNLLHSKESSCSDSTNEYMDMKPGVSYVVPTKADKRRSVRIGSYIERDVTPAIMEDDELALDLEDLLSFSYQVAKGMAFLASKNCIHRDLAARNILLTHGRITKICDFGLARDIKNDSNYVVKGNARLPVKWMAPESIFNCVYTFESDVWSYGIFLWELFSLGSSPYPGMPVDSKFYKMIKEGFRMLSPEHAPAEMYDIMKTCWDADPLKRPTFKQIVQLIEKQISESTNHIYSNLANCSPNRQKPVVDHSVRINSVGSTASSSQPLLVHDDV
Source text: as §1

kinases (kinome) [4] = molecular target: T4, kinases (kinome) (Homo sapiens, UniProt Q13188); settings: MST2 (STE), IPI00411984
T4 construct: determined in kinobeads assays with mass spectrometry detection of kinases as described previously; endogenous in cells; host or cells: cell lysate
T4 sequence (Q13188 1-491): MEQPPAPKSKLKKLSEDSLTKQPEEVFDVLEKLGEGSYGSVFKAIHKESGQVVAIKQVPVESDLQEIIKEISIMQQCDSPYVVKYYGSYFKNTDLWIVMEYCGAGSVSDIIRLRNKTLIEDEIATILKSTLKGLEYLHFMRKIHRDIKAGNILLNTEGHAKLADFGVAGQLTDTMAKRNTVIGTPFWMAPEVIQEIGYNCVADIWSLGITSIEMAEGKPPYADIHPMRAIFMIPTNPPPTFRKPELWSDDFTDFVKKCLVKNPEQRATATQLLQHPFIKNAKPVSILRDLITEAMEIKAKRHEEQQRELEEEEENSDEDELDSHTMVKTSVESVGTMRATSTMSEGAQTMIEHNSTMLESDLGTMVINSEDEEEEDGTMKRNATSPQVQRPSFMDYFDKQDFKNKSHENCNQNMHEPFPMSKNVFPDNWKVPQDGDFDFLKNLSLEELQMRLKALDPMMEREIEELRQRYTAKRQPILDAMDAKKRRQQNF
Source text: as §1

| SMILES | IC50 (kinases (kinome) [1]) [µM] | IC50 (kinases (kinome) [2]) [µM] | IC50 (kinases (kinome) [3]) [µM] | IC50 (kinases (kinome) [4]) [µM] |
| --- | --- | --- | --- | --- |
| C[C@H]1COCCN1c1nc(-c2ccc(NC(=O)NC3CC3)cc2)cc(-c2ccccc2S(C)(=O)=O)n1 [Example 4, (S)-1-cyclopropyl-3-(4-(2-(3-methylmorpholino)-6-(2-(methylsulfonyl)phenyl)pyrimidin-4-yl)phenyl)urea] | > 10 | – | – | – |
| C[C@H]1COCCN1c1cc(-c2ccccc2S(C)(=O)=O)nc(-c2ccc(NC(=O)NC3CC3)cc2)n1 [Example 6, (S)-1-cyclopropyl-3-(4-(4-(3-methylmorpholino)-6-(2-(methylsulfonyl)phenyl)pyrimidin-2-yl)phenyl)urea] | > 10 | – | – | – |
| CCNC(=O)Nc1ccc(-c2cc(-c3ccccc3C#N)nc(N3CCOC[C@@H]3C)n2)cc1 [Example 8, (S)-1-(4-(6-(2-cyanophenyl)-2-(3-methylmorpholino)pyrimidin-4-yl)phenyl)-3-ethylurea] | – | > 10 | – | – |
| C[C@H]1COCCN1c1nc(-c2ccc(NC(=O)NC3CC3)cc2)cc(-c2cc(F)ccc2S(C)(=O)=O)n1 [Example 40, (S)-1-cyclopropyl-3-(4-(6-(5-fluoro-2-(methylsulfonyl)phenyl)-2-(3-methylmorpholino)pyrimidin-4-yl)phenyl)urea] | > 10 | > 10 | > 10 | > 10 |
| C[C@H]1COCCN1c1cc(-c2ccccn2)nc(-c2ccc(NC(=O)NCCO)cc2)n1 [Example 43, (S)-1-(2-hydroxyethyl)-3-(4-(4-(3-methylmorpholino)-6-(pyridin-2-yl)pyrimidin-2-yl)phenyl)urea] | – | > 10 | > 10 | > 10 |
| C[C@H]1COCCN1c1nc(-c2ccc(NC(=O)NC3CC3)cc2)cc(-c2cccnc2S(C)(=O)=O)n1 [Example 46, (S)-1-cyclopropyl-3-(4-(2-(3-methylmorpholino)-6-(2-(methylsulfonyl)pyridin-3-yl)pyrimidin-4-yl)phenyl)urea] | > 10 | > 10 | > 10 | > 10 |
